Data set [1] concerns SW48 human colorectal cancer cells. Kind of data set: Calculated free drug potency in SW48 cell assay, corrected with media free fraction (Example C). Type of data set: cell-based. The note with it: for CC50: Homo sapiens, SW48, SW48 pCC50 corrected with measured free fraction in cell assay media. In short, it runs like this: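 Free drug potency derives from correcting SW48 assay concentrations with the unbound fraction in medium. That fraction came from RED against pH 7.4 PBS, 1 μM nominal compound, 4 h at 37 °C, quantified by LC-MS/MS peak area ratios at T=240 versus T=0 min.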

The test system of data set [2] is SW48 human colorectal cancer cells (MSI-H cancer cells). In words: SW48 cell viability, CellTiter-Glo, 120 hours (Example B). The settings on record: for CC50: Homo sapiens. A general note: In ATP-based viability assays light output follows the ATP content of the culture.
Data set [3] concerns the target T1, recombinant full-length WRN protein (1-1432) (Homo sapiens, UniProt Q14191).
T1 construct: recombinant full-length WRN protein (1-1432)
In words: WRN unwinding activity, fluorogenic 384-well assay (Example A). Type of data set: biochemical. The note with it: WRN unwinding activity, 4 hr; Table 2; read-out: 4 hr UNW pIC50 (converted). In short, it runs like this: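 Read-out is end-point unwinding of a fluorophore/quencher duplex (ex 525, em 598 nm) after 60 min with 200 μM ATP and 12 nM DNA (2× stocks), EDTA stop. Compound first sat 4 h with 200 pM WRN (2× stock) in pH 8.0 Tris buffer; four-parameter fit gives pIC50.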

Data set [4] in a line: Cell culture media unbound percentage and stability by rapid equilibrium dialysis (Example C). Type of data set: in vitro ADME. The settings on record: bovine, cell assay medium (RPMI-1640 with 10% fetal bovine serum), pH 7.4, rapid equilibrium dialysis, 4 hours at 37° C., read-out: Cell Culture Media Binding (% unbound). In short, it runs like this: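 Percent unbound in cell assay medium came from the LC-MS/MS receiver:donor peak area ratio, with stability taken as the 240 min over 0 min ratio. Set-up: 1 μM nominal compound in medium dialysed against pH 7.4 PBS (100 mM phosphate, 150 mM NaCl), 4 h, 37° C, shaken, in triplicate.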
(Equilibrium dialysis compares concentrations on both sides of a semipermeable membrane.)

The mark [5] stands for this setting: SW48, 120 h, read-out: SW48 pCC50, SW48 cell viability, 120 hours incubation (converted), Table 2.
[6] abbreviates: SW48 cell viability, 120 hours incubation, Table 2.
The mark [7] stands for this setting: SW48, read-out: SW48 pCC50, measured potency from Example B, as repeated in Table 3 (converted).

SMILES strings stand for the structures. Structures can show the parent of a compound that is named as a salt. Where two headings read alike, the source gives them in different places.

This is an account of results in patent US12662451B2, “Chemical compounds and uses thereof” (GLAXOSMITHKLINE INTELLECTUAL PROPERTY (NO.4) LIMITED, priority 2023, dated 2026).

T1 sequence (Q14191 whole entry): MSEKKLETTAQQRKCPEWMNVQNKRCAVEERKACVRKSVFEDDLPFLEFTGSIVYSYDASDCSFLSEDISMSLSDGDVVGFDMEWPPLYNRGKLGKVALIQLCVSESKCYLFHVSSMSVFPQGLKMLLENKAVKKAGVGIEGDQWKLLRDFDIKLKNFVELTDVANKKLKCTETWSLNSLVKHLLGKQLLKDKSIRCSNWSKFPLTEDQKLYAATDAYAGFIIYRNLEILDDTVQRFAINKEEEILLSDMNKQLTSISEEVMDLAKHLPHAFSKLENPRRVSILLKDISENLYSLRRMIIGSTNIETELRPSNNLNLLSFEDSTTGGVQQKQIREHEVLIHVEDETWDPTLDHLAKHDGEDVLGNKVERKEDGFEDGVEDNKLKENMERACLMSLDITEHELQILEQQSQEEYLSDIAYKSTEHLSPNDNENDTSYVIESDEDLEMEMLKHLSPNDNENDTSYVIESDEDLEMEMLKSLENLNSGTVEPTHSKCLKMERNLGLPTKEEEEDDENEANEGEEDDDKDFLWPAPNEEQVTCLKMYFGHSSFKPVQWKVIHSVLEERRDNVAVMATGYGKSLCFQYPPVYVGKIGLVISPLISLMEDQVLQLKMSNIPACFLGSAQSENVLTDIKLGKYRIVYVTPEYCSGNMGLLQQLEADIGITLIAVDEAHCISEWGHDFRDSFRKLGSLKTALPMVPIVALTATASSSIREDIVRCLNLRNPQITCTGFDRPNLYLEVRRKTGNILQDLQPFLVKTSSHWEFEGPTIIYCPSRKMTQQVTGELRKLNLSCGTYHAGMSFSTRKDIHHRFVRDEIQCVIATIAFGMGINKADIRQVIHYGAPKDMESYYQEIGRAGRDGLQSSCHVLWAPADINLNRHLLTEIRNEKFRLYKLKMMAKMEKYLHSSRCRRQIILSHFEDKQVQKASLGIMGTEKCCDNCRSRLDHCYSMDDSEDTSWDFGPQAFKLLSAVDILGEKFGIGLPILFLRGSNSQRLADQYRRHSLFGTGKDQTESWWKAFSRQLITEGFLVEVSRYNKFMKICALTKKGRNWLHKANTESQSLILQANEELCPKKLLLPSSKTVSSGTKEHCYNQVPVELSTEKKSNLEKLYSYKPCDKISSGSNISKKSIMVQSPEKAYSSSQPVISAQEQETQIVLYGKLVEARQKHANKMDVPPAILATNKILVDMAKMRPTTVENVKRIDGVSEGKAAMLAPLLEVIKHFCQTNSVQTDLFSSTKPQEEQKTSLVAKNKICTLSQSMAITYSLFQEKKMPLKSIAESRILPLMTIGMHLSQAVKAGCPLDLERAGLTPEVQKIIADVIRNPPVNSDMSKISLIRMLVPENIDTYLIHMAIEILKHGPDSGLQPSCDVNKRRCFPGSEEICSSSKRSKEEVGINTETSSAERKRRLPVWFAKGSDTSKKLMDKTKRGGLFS

For the compound `CC(=O)N[C@@H]1C[C@@H](COc2ccc(C(F)(F)F)cc2)[C@H](C(=O)O)[C@@H](c2ccc(N(C)S(=O)(=O)c3ccc4c(c3)nc(C)n4C)cc2)C1` (single isomer, unassigned) [Example 298], the CC50 in data set [1] is 1.51 µM; in data set [2] (setting [5]) it was 10 µM. Moreover, the IC50 in data set [3] was 0.501 µM. Besides, the fraction unbound at 4 h, 1 µM in data set [4] came out at 0.151.
Turning to `Cc1nc2cc(S(=O)(=O)N(C)c3ccc([C@H]4C[C@@H](N5CCOCC5)C[C@@H](C(=O)Nc5ccc(C(F)(F)F)cc5F)[C@@H]4C(=O)O)cc3)ccc2n1C` (single isomer, unassigned) [Example 337], in data set [1] (SW48 pCC50 corrected with measured free fraction in cell assay media), the “Free Drug SW48 pCC50” value is listed as 7.45. Further, the “SW48 pCC50” value stood at 6.8 in data set [2] (setting [6]) and 6.8 in data set [2] (measured potency from Example B, as repeated in Table 3). In data set [3], the IC50 is 0.00158 µM. Moreover, the fraction unbound at 4 h, 1 µM in data set [4] was 0.224.
`Cc1nc2cc(S(=O)(=O)N(C)c3ccc([C@H]4C[C@@H](OCC5CC6CCC(C5)O6)C[C@@H](C(=O)Nc5ccc(C(F)(F)F)cc5F)[C@@H]4C(=O)O)cc3)ccc2n1C` (single isomer, unassigned) [Example 360]: the CC50 in data set [1] is 0.00589 µM; in data set [2] (setting [5]) it was 0.0631 µM; in data set [2] (setting [7]) it was 0.0631 µM. Also, the IC50 in data set [3] was 0.00501 µM. In addition, the fraction unbound at 4 h, 1 µM in data set [4] was 0.0942.
`Cc1nc2cc(S(=O)(=O)N(C)c3ccc([C@@H]4CC(F)(F)C[C@H](C(=O)Nc5ccc(C(F)(F)F)cc5F)[C@H]4C(=O)O)cc3)ccc2n1C` (single isomer, unassigned) [Example 364]: the figures for the CC50 in data set [1] and in data set [2] (setting [5]) were 1.12 µM and 10 µM, respectively. Further, the IC50 in data set [3] is 0.631 µM. Besides, the fraction unbound at 4 h, 1 µM in data set [4] came to 0.113.
In the case of `Cc1nc2cc(S(=O)(=O)N(C)c3ccc([C@H]4CCC[C@@H](C(=O)Nc5ccc(C(F)(F)F)cc5F)[C@@H]4C(=O)O)cc3F)ccc2n1C` (single isomer, unassigned) [Example 368], the CC50 in data set [1] is 0.102 µM; in data set [2] (setting [5]), 0.794 µM; in data set [2] (setting [7]), 0.794 µM. Moreover, in data set [3], the IC50 is 0.00501 µM. For the same compound, in data set [4], the fraction unbound at 4 h, 1 µM was 0.128.
For the compound `Cc1nc2cc(S(=O)(=O)N(C)c3ccc([C@H]4CCC[C@@H](C(=O)Nc5ccc(C(F)(F)F)cc5F)[C@@H]4C(=O)O)c(F)c3)ccc2n1C` (single isomer, unassigned) [Example 374], the CC50 in data set [1] was 0.0447 µM; in data set [2] (setting [7]) it was 0.398 µM. Further, the “SW48 pCC50” value in data set [2] (setting [6]) came to 6.4. Besides, the IC50 in data set [3] is 0.00398 µM. The fraction unbound at 4 h, 1 µM in data set [4] came to 0.113.
As for `Cc1nc2cc(S(=O)(=O)N(C)c3ccc([C@@H]4C[C@@H]5COC[C@@H]5[C@@H](C(=O)Nc5ccc(C(F)(F)F)cc5F)[C@@H]4C(=O)O)cc3)ccc2n1C` (single isomer, unassigned) [Example 389], the CC50 in data set [1] was 0.589 µM; in data set [2] (setting [5]), 2.51 µM; in data set [2] (setting [7]), 2.51 µM. For the same compound, in data set [3], the IC50 was 0.00501 µM. The fraction unbound at 4 h, 1 µM in data set [4] was 0.235.
As for `CCCO[C@@H]1C[C@H](c2ccc(N(C)S(=O)(=O)c3ccc4c(c3)nc(C)n4C)cc2)[C@@H](C(=O)O)[C@H](C(=O)Nc2ccc(C(F)(F)F)cc2F)C1` (stereo in doubt) [Example 151, rel-(1R,2R,4R,6S)-2-((2-fluoro-4-(trifluoromethyl)phenyl)carbamoyl)-4-propoxy-6-(4-((N,1,2-trimethyl-1H-benzo[d]imidazole)-5-sulfonamido)phenyl)cyclohexane-1-carboxylic acid], the values for the CC50 in data set [1], in data set [2] (setting [5]) and in data set [2] (setting [7]) were 0.0117 µM, 0.501 µM and 0.501 µM, respectively. Besides, in data set [3], the IC50 is 0.00316 µM. Moreover, in data set [4], the fraction unbound at 4 h, 1 µM is 0.0233.
On to `Cc1nc2cc(S(=O)(=O)N(C)c3ccc([C@H]4C[C@@H](OCC5CCC5)C[C@@H](C(=O)Nc5ccc(C(F)(F)F)cc5F)[C@@H]4C(=O)O)cc3)ccc2n1C` (stereo in doubt) [Example 154, rel-(1R,2R,4R,6S)-4-(cyclobutylmethoxy)-2-((2-fluoro-4-(trifluoromethyl)phenyl)carbamoyl)-6-(4-((N,1,2-trimethyl-1H-benzo[d]imidazole)-5-sulfonamido)phenyl)cyclohexane-1-carboxylic acid], for which the results for the CC50 in data set [1], in data set [2] (setting [5]) and in data set [2] (setting [7]) were 0.00501 µM, 0.398 µM and 0.398 µM, respectively. Besides, the IC50 in data set [3] was 0.00398 µM. Moreover, the fraction unbound at 4 h, 1 µM in data set [4] came to 0.0127.
Take `Cc1nc2cc(S(=O)(=O)N(C)c3ccc([C@@H]4CCC[C@H](COc5ccc(C(F)(F)F)cc5)[C@H]4C(=O)O)cc3)cc([C@H]3CCCNC3)c2n1C` (stereo in doubt) [Example 208, rel-(1R,2R,6S)-2-((4-(trifluoromethyl)phenoxy)methyl)-6-(4-((N,1,2-trimethyl-7-((R)-piperidin-3-yl)-1H-benzo[d]imidazole)-5-sulfonamido)phenyl)cyclohexane-1-carboxylic acid, hydrochloride]: the CC50 in data set [1] is 0.0363 µM; in data set [2] (setting [5]) it was 1.26 µM; in data set [2] (setting [7]), 1.26 µM. In data set [3], the IC50 is 0.00158 µM. In data set [4], the fraction unbound at 4 h, 1 µM was found to be 0.0289.
For `Cc1nc2cc(S(=O)(=O)N(C)c3ccc([C@H]4C[C@@H](N(C)C)C[C@@H](C(=O)Nc5ccc(C(F)(F)F)cc5F)[C@@H]4C(=O)O)cc3)ccc2n1C` (stereo in doubt) [Example 251, rel-(1R,2R,4R,6S)-4-(dimethylamino)-2-((2-fluoro-4-(trifluoromethyl)phenyl)carbamoyl)-6-(4-((N,1,2-trimethyl-1H-benzo[d]imidazole)-5-sulfonamido)phenyl)cyclohexane-1-carboxylic acid], the CC50 in data set [1] was 0.138 µM; in data set [2] (setting [5]), 0.501 µM; in data set [2] (setting [7]) it was 0.501 µM. Further, the IC50 in data set [3] is 0.001 µM. In addition, the fraction unbound at 4 h, 1 µM in data set [4] was found to be 0.274.
As for `Cc1nc2cc(S(=O)(=O)N(C)c3ccc([C@H]4C[C@@H](OC(F)F)C[C@@H](C(=O)Nc5ccc(C(F)(F)F)cc5F)[C@@H]4C(=O)O)cc3)ccc2n1C` (stereo in doubt) [Example 284, rel-(1R,2R,4R,6S)-4-(difluoromethoxy)-2-((2-fluoro-4-(trifluoromethyl)phenyl)carbamoyl)-6-(4-((N,1,2-trimethyl-1H-benzo[d]imidazole)-5-sulfonamido)phenyl)cyclohexane-1-carboxylic acid], the CC50 in data set [1] was 0.0135 µM; in data set [2] (setting [5]), 0.2 µM; in data set [2] (setting [7]) it was 0.2 µM. Besides, the IC50 in data set [3] is 0.00316 µM. In data set [4], the fraction unbound at 4 h, 1 µM is 0.068.
Turning to `CC(=O)N(C)[C@@H]1C[C@H](c2ccc(N(C)S(=O)(=O)c3ccc4c(c3)nc(C)n4C)cc2)[C@@H](C(=O)O)[C@H](C(=O)Nc2ccc(C(F)(F)F)cc2F)C1` (stereo in doubt) [Example 292, rel-(1R,2R,4R,6S)-2-((2-fluoro-4-(trifluoromethyl)phenyl)carbamoyl)-4-(N-methylacetamido)-6-(4-((N,1,2-trimethyl-1H-benzo[d]imidazole)-5-sulfonamido)phenyl)cyclohexane-1-carboxylic acid], the CC50 in data set [1] is 0.178 µM; in data set [2] (setting [5]), 0.794 µM; in data set [2] (setting [7]), 0.794 µM. For the same compound, the IC50 in data set [3] is 0.00158 µM. The fraction unbound at 4 h, 1 µM in data set [4] was 0.223.
